Measurements taken from ChEMBL document CHEMBL4507293 (2021).

What was measured:
[1] = biological target: Serine/threonine-protein kinase Sgk2 (Homo sapiens) (UniProt Q9HBY8); details: Compound concentration 100.0 nM
[2] = biological target: Myosin-IIIb (Homo sapiens) (UniProt Q8WXR4); details: Compound concentration 100.0 nM
[3] = biological target: Serine/threonine-protein kinase Nek9 (Homo sapiens) (UniProt Q8TD19); details: Compound concentration 100.0 nM
[4] = biological target: Mitogen-activated protein kinase 11 (Homo sapiens) (UniProt Q15759); details: Compound concentration 100.0 nM
Mitogen-activated protein kinase 11 (Homo sapiens), sequence (Q15759 whole entry): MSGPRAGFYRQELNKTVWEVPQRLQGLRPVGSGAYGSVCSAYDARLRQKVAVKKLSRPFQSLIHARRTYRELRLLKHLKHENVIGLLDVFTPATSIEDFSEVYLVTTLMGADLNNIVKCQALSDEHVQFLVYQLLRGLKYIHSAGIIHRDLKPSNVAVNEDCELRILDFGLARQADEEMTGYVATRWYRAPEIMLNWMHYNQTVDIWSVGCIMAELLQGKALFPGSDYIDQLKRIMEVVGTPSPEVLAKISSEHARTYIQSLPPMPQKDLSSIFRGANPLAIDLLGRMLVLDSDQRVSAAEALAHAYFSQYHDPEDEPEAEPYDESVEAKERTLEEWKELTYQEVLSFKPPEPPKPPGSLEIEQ

[5] = biological target: Tyrosine-protein kinase Fes/Fps (Homo sapiens) (UniProt P07332); details: Compound concentration 100.0 nM
[6] = biological target: Wee1-like protein kinase (Homo sapiens) (UniProt P30291); details: Compound concentration 100.0 nM
[7] = biological target: Dual specificity protein kinase CLK4 (Homo sapiens) (UniProt Q9HAZ1); details: Compound concentration 100.0 nM
[8] = biological target: Serine/threonine-protein kinase 38-like (Homo sapiens) (UniProt Q9Y2H1); details: Compound concentration 100.0 nM
[9] = test system: Proto-oncogene tyrosine-protein kinase receptor Ret (Homo sapiens), P07949 [M918T]; details: Compound concentration 100.0 nM
Proto-oncogene tyrosine-protein kinase receptor Ret (Homo sapiens), P07949 [M918T], sequence (P07949 whole entry M918T): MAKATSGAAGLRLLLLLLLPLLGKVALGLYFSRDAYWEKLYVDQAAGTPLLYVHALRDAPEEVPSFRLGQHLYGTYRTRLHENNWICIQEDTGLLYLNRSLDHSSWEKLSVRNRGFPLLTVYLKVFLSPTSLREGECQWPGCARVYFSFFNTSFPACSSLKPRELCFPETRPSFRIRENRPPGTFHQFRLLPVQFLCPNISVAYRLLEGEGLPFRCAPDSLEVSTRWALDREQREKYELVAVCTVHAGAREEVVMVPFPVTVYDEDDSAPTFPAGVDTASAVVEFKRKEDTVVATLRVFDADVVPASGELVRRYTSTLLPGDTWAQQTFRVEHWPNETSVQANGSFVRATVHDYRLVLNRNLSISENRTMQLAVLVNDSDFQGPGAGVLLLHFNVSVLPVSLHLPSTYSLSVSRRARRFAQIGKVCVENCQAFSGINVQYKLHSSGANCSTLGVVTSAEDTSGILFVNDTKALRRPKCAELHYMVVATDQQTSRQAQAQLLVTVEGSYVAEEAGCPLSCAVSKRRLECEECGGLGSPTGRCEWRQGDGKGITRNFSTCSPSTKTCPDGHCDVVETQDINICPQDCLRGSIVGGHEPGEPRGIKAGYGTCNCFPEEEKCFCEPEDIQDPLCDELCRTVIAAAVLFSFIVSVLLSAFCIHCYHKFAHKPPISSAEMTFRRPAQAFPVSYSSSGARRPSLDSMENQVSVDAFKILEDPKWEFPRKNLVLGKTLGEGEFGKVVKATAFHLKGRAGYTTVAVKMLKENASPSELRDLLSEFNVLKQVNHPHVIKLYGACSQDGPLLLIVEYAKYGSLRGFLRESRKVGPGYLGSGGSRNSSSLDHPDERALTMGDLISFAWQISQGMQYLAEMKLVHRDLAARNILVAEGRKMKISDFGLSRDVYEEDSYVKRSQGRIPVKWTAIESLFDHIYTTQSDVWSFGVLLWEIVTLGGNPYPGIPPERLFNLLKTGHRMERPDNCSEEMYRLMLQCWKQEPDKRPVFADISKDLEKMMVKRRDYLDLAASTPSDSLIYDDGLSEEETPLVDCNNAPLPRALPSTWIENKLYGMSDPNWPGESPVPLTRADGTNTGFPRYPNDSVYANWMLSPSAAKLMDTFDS

[10] = test system: Receptor-type tyrosine-protein kinase FLT3 (Homo sapiens), P36888 [UNDEFINED MUTATION]; details: Compound concentration 100.0 nM
[11] = biological target: MAP/microtubule affinity-regulating kinase 3 (Homo sapiens) (UniProt P27448); details: Compound concentration 100.0 nM
[12] = biological target: High affinity cGMP-specific 3',5'-cyclic phosphodiesterase 9A (Homo sapiens, UniProt O76083); assay: Biochemical assay (PDE9A)
High affinity cGMP-specific 3',5'-cyclic phosphodiesterase 9A, sequence (O76083 whole entry, canonical isoform): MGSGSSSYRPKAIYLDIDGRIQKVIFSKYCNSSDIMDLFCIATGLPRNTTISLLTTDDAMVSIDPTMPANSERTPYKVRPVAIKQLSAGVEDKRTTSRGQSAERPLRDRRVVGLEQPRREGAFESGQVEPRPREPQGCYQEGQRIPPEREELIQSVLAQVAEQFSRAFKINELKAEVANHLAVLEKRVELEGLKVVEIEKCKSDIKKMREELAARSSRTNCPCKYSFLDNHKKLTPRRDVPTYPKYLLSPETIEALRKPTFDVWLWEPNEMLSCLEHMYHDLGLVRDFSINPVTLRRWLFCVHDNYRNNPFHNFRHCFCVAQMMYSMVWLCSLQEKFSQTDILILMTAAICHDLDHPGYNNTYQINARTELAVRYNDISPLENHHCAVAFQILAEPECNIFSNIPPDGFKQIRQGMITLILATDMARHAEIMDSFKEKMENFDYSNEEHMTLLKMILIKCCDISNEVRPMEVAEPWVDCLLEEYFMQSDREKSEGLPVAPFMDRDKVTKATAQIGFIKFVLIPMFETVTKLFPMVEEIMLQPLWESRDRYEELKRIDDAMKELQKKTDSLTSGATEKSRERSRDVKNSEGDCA

[13] = biological target: Phosphorylase b kinase gamma catalytic chain, skeletal muscle/heart isoform (Homo sapiens) (UniProt Q16816); details: Compound concentration 100.0 nM
[14] = biological target: SRSF protein kinase 1 (Homo sapiens) (UniProt Q96SB4); details: Compound concentration 100.0 nM
[15] = biological target: Cyclin-dependent kinase 4 (Homo sapiens) (UniProt P11802); details: Compound concentration 100.0 nM
Cyclin-dependent kinase 4 (Homo sapiens), sequence (P11802 whole entry): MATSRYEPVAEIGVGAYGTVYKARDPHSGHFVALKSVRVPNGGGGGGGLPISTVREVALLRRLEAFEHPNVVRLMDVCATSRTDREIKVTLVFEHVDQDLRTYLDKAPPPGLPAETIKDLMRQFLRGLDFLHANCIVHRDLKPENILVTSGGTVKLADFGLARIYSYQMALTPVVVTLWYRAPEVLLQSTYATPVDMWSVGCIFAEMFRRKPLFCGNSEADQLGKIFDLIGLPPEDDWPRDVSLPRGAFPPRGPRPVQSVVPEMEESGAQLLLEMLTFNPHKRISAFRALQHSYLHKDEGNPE

[16] = biological target: Serine/threonine-protein kinase 17A (Homo sapiens) (UniProt Q9UEE5); details: Compound concentration 100.0 nM
[17] = test system: Receptor-type tyrosine-protein kinase FLT3 (Homo sapiens), P36888 [UNDEFINED MUTATION]; details: Compound concentration 100.0 nM; remark: listed apart in the source
[18] = biological target: Bone morphogenetic protein receptor type-2 (Homo sapiens) (UniProt Q13873); details: Compound concentration 100.0 nM
Bone morphogenetic protein receptor type-2 (Homo sapiens), sequence (Q13873 whole entry): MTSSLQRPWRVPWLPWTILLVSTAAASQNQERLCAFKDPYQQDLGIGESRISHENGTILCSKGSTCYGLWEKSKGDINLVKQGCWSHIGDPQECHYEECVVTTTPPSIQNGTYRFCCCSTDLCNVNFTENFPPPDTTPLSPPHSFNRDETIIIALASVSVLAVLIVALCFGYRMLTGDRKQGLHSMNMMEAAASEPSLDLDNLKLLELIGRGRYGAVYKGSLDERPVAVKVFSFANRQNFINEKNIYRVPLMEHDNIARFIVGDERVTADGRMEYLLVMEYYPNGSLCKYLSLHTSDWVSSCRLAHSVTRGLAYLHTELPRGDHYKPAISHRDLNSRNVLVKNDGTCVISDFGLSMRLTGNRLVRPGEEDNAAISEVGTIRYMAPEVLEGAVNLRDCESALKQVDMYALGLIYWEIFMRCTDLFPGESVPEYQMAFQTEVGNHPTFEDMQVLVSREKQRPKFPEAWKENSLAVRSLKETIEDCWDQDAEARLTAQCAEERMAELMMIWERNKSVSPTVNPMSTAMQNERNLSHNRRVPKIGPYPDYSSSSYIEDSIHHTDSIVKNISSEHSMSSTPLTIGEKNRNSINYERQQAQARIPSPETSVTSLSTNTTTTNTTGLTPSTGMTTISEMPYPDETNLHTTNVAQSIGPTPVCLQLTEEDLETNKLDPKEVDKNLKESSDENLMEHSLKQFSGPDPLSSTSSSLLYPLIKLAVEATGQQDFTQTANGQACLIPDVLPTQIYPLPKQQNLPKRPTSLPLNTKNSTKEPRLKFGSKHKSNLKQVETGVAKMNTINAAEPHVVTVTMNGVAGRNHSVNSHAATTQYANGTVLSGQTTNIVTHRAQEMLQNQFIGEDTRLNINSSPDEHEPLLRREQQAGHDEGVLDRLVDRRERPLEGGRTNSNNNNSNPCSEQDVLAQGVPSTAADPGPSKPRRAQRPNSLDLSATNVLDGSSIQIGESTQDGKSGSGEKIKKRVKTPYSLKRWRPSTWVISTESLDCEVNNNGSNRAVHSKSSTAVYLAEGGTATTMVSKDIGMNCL

[19] = biological target: Serine/threonine-protein kinase SIK3 (Homo sapiens) (UniProt Q9Y2K2); details: Compound concentration 100.0 nM
[20] = biological target: Rhodopsin kinase GRK1 (Homo sapiens) (UniProt Q15835); details: Compound concentration 100.0 nM
Rhodopsin kinase GRK1 (Homo sapiens), sequence (Q15835 whole entry): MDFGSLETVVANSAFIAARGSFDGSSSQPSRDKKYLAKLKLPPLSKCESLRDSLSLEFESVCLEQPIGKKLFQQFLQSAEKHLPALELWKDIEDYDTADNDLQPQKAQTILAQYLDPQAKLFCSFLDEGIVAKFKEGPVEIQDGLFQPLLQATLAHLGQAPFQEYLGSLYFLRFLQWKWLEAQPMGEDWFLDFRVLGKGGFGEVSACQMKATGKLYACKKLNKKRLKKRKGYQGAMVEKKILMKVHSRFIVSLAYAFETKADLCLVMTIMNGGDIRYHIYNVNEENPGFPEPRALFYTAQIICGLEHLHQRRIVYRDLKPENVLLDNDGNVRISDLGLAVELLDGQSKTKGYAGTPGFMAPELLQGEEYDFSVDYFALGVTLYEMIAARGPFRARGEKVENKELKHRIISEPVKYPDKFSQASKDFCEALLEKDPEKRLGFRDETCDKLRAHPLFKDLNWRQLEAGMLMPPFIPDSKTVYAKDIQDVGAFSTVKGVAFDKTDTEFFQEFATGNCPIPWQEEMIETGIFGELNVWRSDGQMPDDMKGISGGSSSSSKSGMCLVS

[21] = biological target: RAF proto-oncogene serine/threonine-protein kinase (Homo sapiens) (UniProt P04049); details: Compound concentration 100.0 nM
[22] = biological target: Ribosomal protein S6 kinase alpha-4 (Homo sapiens) (UniProt O75676); details: Compound concentration 100.0 nM
[23] = biological target: Hormonally up-regulated neu tumor-associated kinase (Homo sapiens) (UniProt P57058); details: Compound concentration 100.0 nM
[24] = biological target: High affinity 3',5'-cyclic-AMP phosphodiesterase 7A (Homo sapiens, UniProt Q13946); assay: Biochemical assay (PDE7A)
[25] = biological target: Beta-adrenergic receptor kinase 1 (Homo sapiens) (UniProt P25098); details: Compound concentration 100.0 nM
[26] = biological target: Tyrosine-protein kinase receptor UFO (Homo sapiens) (UniProt P30530); details: Compound concentration 100.0 nM
[27] = biological target: Serine/threonine-protein kinase PLK1 (Homo sapiens) (UniProt P53350); details: Compound concentration 100.0 nM
[28] = biological target: Activated CDC42 kinase 1 (Homo sapiens) (UniProt Q07912); details: Compound concentration 100.0 nM
[29] = test system: Epidermal growth factor receptor (Homo sapiens), P00533 [L861Q]; details: Compound concentration 100.0 nM
[30] = biological target: Ephrin type-A receptor 4 (Homo sapiens) (UniProt P54764); details: Compound concentration 100.0 nM
[31] = biological target: Serine/threonine-protein kinase PRP4 homolog (Homo sapiens) (UniProt Q13523); details: Compound concentration 100.0 nM
[32] = biological target: Calcium/calmodulin-dependent protein kinase type 1D (Homo sapiens) (UniProt Q8IU85); details: Compound concentration 100.0 nM
Calcium/calmodulin-dependent protein kinase type 1D (Homo sapiens), sequence (Q8IU85 whole entry, looked up): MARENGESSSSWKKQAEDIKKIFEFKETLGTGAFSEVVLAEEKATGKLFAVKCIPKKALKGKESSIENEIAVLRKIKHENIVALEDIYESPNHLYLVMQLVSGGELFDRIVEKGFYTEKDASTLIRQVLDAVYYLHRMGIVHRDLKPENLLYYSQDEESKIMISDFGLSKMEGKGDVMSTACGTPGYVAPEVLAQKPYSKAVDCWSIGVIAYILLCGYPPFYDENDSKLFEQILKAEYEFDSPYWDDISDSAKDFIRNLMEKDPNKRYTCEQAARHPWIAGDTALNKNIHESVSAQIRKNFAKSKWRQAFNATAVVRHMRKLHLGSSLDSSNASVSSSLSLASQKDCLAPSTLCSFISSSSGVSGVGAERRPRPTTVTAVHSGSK

[33] = biological target: Dual specificity mitogen-activated protein kinase kinase 7 (Homo sapiens) (UniProt O14733); details: Compound concentration 100.0 nM
[34] = test system: Receptor-type tyrosine-protein kinase FLT3 (Homo sapiens), P36888 [R834Q]; details: Compound concentration 100.0 nM
[35] = biological target: Serine/threonine-protein kinase pim-2 (Homo sapiens) (UniProt Q9P1W9); details: Compound concentration 100.0 nM
Serine/threonine-protein kinase pim-2 (Homo sapiens), sequence (Q9P1W9 whole entry, looked up): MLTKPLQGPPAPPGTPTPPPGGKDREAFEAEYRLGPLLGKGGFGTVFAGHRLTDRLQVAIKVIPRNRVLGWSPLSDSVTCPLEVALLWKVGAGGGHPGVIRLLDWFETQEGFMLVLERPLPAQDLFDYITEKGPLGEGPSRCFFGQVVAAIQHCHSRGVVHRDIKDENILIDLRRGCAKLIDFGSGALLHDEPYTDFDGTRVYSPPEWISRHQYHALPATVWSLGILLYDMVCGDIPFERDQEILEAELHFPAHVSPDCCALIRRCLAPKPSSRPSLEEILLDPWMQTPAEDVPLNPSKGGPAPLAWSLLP

[36] = test system: Tyrosine-protein kinase ABL1 (Homo sapiens), P00519 [M351T]; details: Compound concentration 100.0 nM
[37] = biological target: NUAK family SNF1-like kinase 2 (Homo sapiens) (UniProt Q9H093); details: Compound concentration 100.0 nM
[38] = test system: Epidermal growth factor receptor (Homo sapiens), P00533 [L858R,T790M]; details: Compound concentration 100.0 nM
[39] = test system: Serine/threonine-protein kinase B-raf (Homo sapiens), P15056 [V600E]; details: Compound concentration 100.0 nM
[40] = biological target: Interleukin-1 receptor-associated kinase 3 (Homo sapiens) (UniProt Q9Y616); details: Compound concentration 100.0 nM
[41] = test system: Leucine-rich repeat serine/threonine-protein kinase 2 (Homo sapiens), Q5S007 [G2019S]; details: Compound concentration 100.0 nM
[42] = biological target: cGMP-inhibited 3',5'-cyclic phosphodiesterase 3A (Homo sapiens, UniProt Q14432); assay: Biochemical assay (PDE3A)
[43] = biological target: Dual specificity mitogen-activated protein kinase kinase 1 (Homo sapiens) (UniProt Q02750); details: Compound concentration 100.0 nM
[44] = biological target: Non-receptor tyrosine-protein kinase TYK2 (Homo sapiens) (UniProt P29597); details: Compound concentration 100.0 nM
[45] = biological target: Ephrin type-B receptor 3 (Homo sapiens) (UniProt P54753); details: Compound concentration 100.0 nM

Molecule CC(C)CC(=O)N1CCc2nc(-c3ccc(Br)cc3)nc(N(C)Cc3ccccc3)c2C1 [THPP-1-NC] has a residual activity [1] of 94%, a residual activity [2] of 78% and a residual activity [3] of 100%. It also gave a residual activity [4] of 100%, a residual activity [5] of 100% and a residual activity [6] of 100%. The residual activity [7] was 92%, the residual activity [8] was 95% and the residual activity [9] was 100%. For the same molecule, the residual activity [10] was 92%, the residual activity [11] was 100% and the Ki [12] was > 54.6 µM (not active). The residual activity [13] was 100%, the residual activity [14] was 99% and the residual activity [15] was 85%. It also gave a residual activity [16] of 96%, a residual activity [17] of 68% and a residual activity [18] of 99%. The residual activity [19] was 100%, the residual activity [20] was 100% and the residual activity [21] was 100%. The residual activity [22] was 100%, the residual activity [23] was 86% and the Ki [24] was > 25.3 µM (not active). The residual activity [25] was 100%, the residual activity [26] was 63% and the residual activity [27] was 100%. It also gave a residual activity [28] of 99%, a residual activity [29] of 100% and a residual activity [30] of 100%. It also gave a residual activity [31] of 100%, a residual activity [32] of 100% and a residual activity [33] of 79%. The residual activity [34] was 65%, the residual activity [35] was 100% and the residual activity [36] was 100%. The residual activity [37] was 100%, the residual activity [38] was 100% and the residual activity [39] was 100%. The residual activity [40] was 100%, the residual activity [41] was 100% and the Ki [42] was > 50 µM (not active). For the same molecule, the residual activity [43] was 100%, the residual activity [44] was 100% and the residual activity [45] was 100%.

Molecule COCCOc1nc(-c2ccc(Cl)nc2)nc2c1CN(C(=O)c1ncn3ccccc13)CC2 [THPP-1] has a residual activity [1] of 88%, a residual activity [2] of 67% and a residual activity [3] of 100%. The residual activity [4] was 100%, the residual activity [5] was 100% and the residual activity [6] was 100%. The residual activity [7] was 100%, the residual activity [8] was 100% and the residual activity [9] was 90%. For the same molecule, the residual activity [10] was 100%, the residual activity [11] was 100% and the Ki [12] was > 50 µM (not active). It also gave a residual activity [13] of 100%, a residual activity [14] of 86% and a residual activity [15] of 96%. For the same molecule, the residual activity [16] was 79%, the residual activity [17] was 64% and the residual activity [18] was 100%. For the same molecule, the residual activity [19] was 100%, the residual activity [20] was 100% and the residual activity [21] was 97%. For the same molecule, the residual activity [22] was 100%, the residual activity [23] was 78% and the Ki [24] was 11.2 µM (not active). For the same molecule, the residual activity [25] was 100%, the residual activity [26] was 90% and the residual activity [27] was 100%. For the same molecule, the residual activity [28] was 100%, the residual activity [29] was 99% and the residual activity [30] was 100%. It also gave a residual activity [31] of 100%, a residual activity [32] of 100% and a residual activity [33] of 95%. It also gave a residual activity [34] of 65%, a residual activity [35] of 98% and a residual activity [36] of 100%. It also gave a residual activity [37] of 100%, a residual activity [38] of 100% and a residual activity [39] of 100%. For the same molecule, the residual activity [40] was 100%, the residual activity [41] was 100% and the Ki [42] was 3.3 µM (not active). For the same molecule, the residual activity [43] was 100%, the residual activity [44] was 100% and the residual activity [45] was 100%.
